# According to US8962651B2, “Compounds for the treatment of hepatitis C” (Bristol-Myers Squibb Company, priority 2013, dated 2015):
# System: genotype 1b (Con-1) HCV replicon
# Test: HCV replicon luciferase assay
# Assay type: cell-based
# Conditions: 1b replicon, Huh-7 cells, Renilla luciferase, 3 days incubation
# Protocol: The cell lines used to evaluate compounds consist of a human hepatocyte derived cell line (Huh-7) that constitutively expresses a genotype 1b (Con-1) HCV replicon or a genotype 1b (Con-1) HCV replicon with an asparagine replacing the cysteine at amino acid 316, or a genotype 2a (JFH-1) replicon, containing a Renilla luciferase reporter gene. These cells were maintained in Dulbecco's modified Eagle medium (DMEM) containing 10% FBS, 100 U/mL penicillin/streptomycin and 1.0 mg/mL G418.
# After 3 days incubation at 37° C., cells were analyzed for Renilla Luciferase activity using the EnduRen substrate (Promega cat #E6485) according to the manufacturer's directions. Briefly, the EnduRen substrate was diluted in DMEM and then added to the plates to a final concentration of 7.5 μM. The plates were incubated for at least 1 h at 37° C. then read on a Viewlux Imager (PerkinElmer) using a luminescence program.
row,Structure (SMILES),EC50 [nM]
1,"CCC(C)c1nc2oc(-c3ccc(F)cc3)c(C(=O)NC)c2cc1-c1cccc(C(=O)NC(C)(C)c2ncon2)c1 (stereo not shown) [Example 15, 5-(3-((2-(1,2,4-oxadiazol-3-yl)propan-2-yl)carbamoyl)phenyl)-6-(sec-butyl)-2-(4-fluorophenyl)-N-methylfuro[2,3-b]pyridine-3-carboxamide]",4.98
2,"CCC(C)c1nc2oc(-c3ccc(F)cc3)c(C(=O)NC)c2cc1-c1cccc(C(=O)NC(C)(C)c2ncon2)c1 (stereo not shown) [Example 16, 5-(3-((2-(1,2,4-oxadiazol-3-yl)propan-2-yl)carbamoyl)phenyl)-6-(sec-butyl)-2-(4-fluorophenyl)-N-methylfuro[2,3-b]pyridine-3-carboxamide]",20

# Same assay, conditions: Hepatitis C virus, Huh-7, 72 h, 1b replicon, Huh-7 cells, Renilla luciferase, 3 days incubation
row,Structure (SMILES),EC50 [nM]
1,"CNC(=O)c1c(-c2ccc(F)cc2)oc2nc(CCC(F)(F)F)c(-c3cccc(C(=O)NC(C)(C)c4ncon4)c3)cc12 [Example 1, 5-(3-((2-(1,2,4-oxadiazol-3-yl)propan-2-yl)carbamoyl)phenyl)-2-(4-fluorophenyl)-N-methyl-6-(3,3,3-trifluoropropyl)furo[2,3-b]pyridine-3-carboxamide]",3.02
2,"CNC(=O)c1c(-c2ccc(F)cc2)oc2nc(NCC(F)(F)F)c(-c3cccc(C(=O)NC4(c5ncon5)CCC4)c3)cc12 [Example 5, 5-(3-((1-(1,2,4-oxadiazol-3-yl)cyclobutyl)carbamoyl)phenyl)-2-(4-fluorophenyl)-N-methyl-6-((2,2,2-trifluoroethyl)amino)furo[2,3-b]pyridine-3-carboxamide]",4.96
3,"CNC(=O)c1c(-c2ccc(F)cc2)oc2nc(NCC(F)(F)F)c(-c3cccc(C(=O)NC4(c5noc(C)n5)CC4)c3)cc12 [Example 6, 2-(4-fluorophenyl)-N-methyl-5-(3-((1-(5-methyl-1,2,4-oxadiazol-3-yl)cyclopropyl)carbamoyl)phenyl)-6-((2,2,2-trifluoroethyl)amino)furo[2,3-b]pyridine-3-carboxamide]",4.76
4,"CNC(=O)c1c(-c2ccc(F)cc2)oc2nc(NCC(F)(F)F)c(-c3cccc(C(=O)NC(C)(C)c4nc(C)no4)c3)cc12 [Example 7, 2-(4-fluorophenyl)-N-methyl-5-(3-((2-(3-methyl-1,2,4-oxadiazol-5-yl)propan-2-yl)carbamoyl)phenyl)-6-((2,2,2-trifluoroethyl)amino)furo[2,3-b]pyridine-3-carboxamide]",3.46
5,"CNC(=O)c1c(-c2ccc(F)cc2)oc2nc(NCC(F)(F)F)c(-c3cccc(C(=O)NC4(c5nc(C)no5)CC4)c3)cc12 [Example 8, 2-(4-fluorophenyl)-N-methyl-5-(3-((1-(3-methyl-1,2,4-oxadiazol-5-yl)cyclopropyl)carbamoyl)phenyl)-6-((2,2,2-trifluoroethyl)amino)furo[2,3-b]pyridine-3-carboxamide]",5.6
6,"CNC(=O)c1c(-c2ccc(F)cc2)oc2nc(CCC(F)(F)F)c(-c3cccc(C(=O)NC(C)(C)c4noc(C)n4)c3)cc12 [Example 10, 2-(4-fluorophenyl)-N-methyl-5-(3-((2-(5-methyl-1,2,4-oxadiazol-3-yl)propan-2-yl)carbamoyl)phenyl)-6-(3,3,3-trifluoropropyl)furo[2,3-b]pyridine-3-carboxamide]",3.61
7,"CNC(=O)c1c(-c2ccc(F)cc2)oc2nc(NCC(F)(F)F)c(-c3cccc(C(=O)NC(C)(C)c4noc(C)n4)c3)cc12 [Example 11, 2-(4-fluorophenyl)-N-methyl-5-(3-((2-(5-methyl-1,2,4-oxadiazol-3-yl)propan-2-yl)carbamoyl)phenyl)-6-((2,2,2-trifluoroethyl)amino)furo[2,3-b]pyridine-3-carboxamide]",4.96
8,"CNC(=O)c1c(-c2ccc(F)cc2)oc2nc(NCC(F)(F)F)c(-c3cccc(C(=O)NC(C)(C)c4ncon4)c3)cc12 [Example 12, 5-(3-((2-(1,2,4-oxadiazol-3-yl)propan-2-yl)carbamoyl)phenyl)-2-(4-fluorophenyl)-N-methyl-6-((2,2,2-trifluoroethyl)amino)furo[2,3-b]pyridine-3-carboxamide]",2.95
9,"CNC(=O)c1c(-c2ccc(F)cc2)oc2nc(NCC(F)(F)F)c(-c3ccc(OC)c(C(=O)NC(C)(C)c4ncon4)c3)cc12 [Example 14, 5-(3-((2-(1,2,4-oxadiazol-3-yl)propan-2-yl)carbamoyl)-4-methoxyphenyl)-2-(4-fluorophenyl)-N-methyl-6-((2,2,2-trifluoroethyl)amino)furo[2,3-b]pyridine-3-carboxamide]",6.67
10,"[2H]C([2H])([2H])Oc1ncc(-c2cc3c(C(=O)NC)c(-c4ccc(F)cc4)oc3nc2NCC(F)(F)F)cc1C(=O)NC(c1ncon1)(C([2H])([2H])[2H])C([2H])([2H])[2H] [Example 18, 5-[2-(4-fluorophenyl)-3-(methylcarbamoyl)-6-[(2,2,2-trifluoroethyl)amino]furo[2,3-b]pyridin-5-yl]-2-(^2H3)methoxy-N-[2-(1,2,4-oxadiazol-3-yl)(^2H6)propan-2-yl]pyridine-3-carboxamide]",4.32
11,"[2H]c1nc(C(NC(=O)c2cc(-c3cc4c(C(=O)NC)c(-c5ccc(F)cc5)oc4nc3NCC(F)(F)F)cnc2OC([2H])([2H])[2H])(C([2H])([2H])[2H])C([2H])([2H])[2H])no1 [Example 19, 5-[2-(4-fluorophenyl)-3-(methylcarbamoyl)-6-[(2,2,2-trifluoroethyl)amino]furo[2,3-b]pyridin-5-yl]-2-(^2H3)methoxy-N-{2-[(^2H)-1,2,4-oxadiazol-3-yl](^2H6)propan-2-yl}pyridine-3-carboxamide]",5.77
12,"[2H]C([2H])([2H])Oc1ncc(-c2cc3c(C(=O)NC)c(-c4ccc(F)cc4)oc3nc2OCC(F)(F)F)cc1C(=O)NC(c1ncon1)(C([2H])([2H])[2H])C([2H])([2H])[2H] [Example 21, 5-[2-(4-fluorophenyl)-3-(methylcarbamoyl)-6-(2,2,2-trifluoroethoxy)furo[2,3-b]pyridin-5-yl]-2-(^2H3)methoxy-N-[2-(1,2,4-oxadiazol-3-yl)(^2H6)propan-2-yl]pyridine-3-carboxamide]",2.23
13,"[2H]C([2H])([2H])Oc1ncc(-c2cc3c(C(=O)NC)c(-c4ccc(F)cc4)oc3nc2OCC(F)(F)F)cc1C(=O)NC(C)(C)c1ncon1 [Example 22, 5-[2-(4-fluorophenyl)-3-(methylcarbamoyl)-6-(2,2,2-trifluoroethoxy)furo[2,3-b]pyridin-5-yl]-2-(^2H3)methoxy-N-[2-(1,2,4-oxadiazol-3-yl)propan-2-yl]pyridine-3-carboxamide]",1.7
14,"[2H]C([2H])([2H])C(NC(=O)c1cc(-c2cc3c(C(=O)NC)c(-c4ccc(F)cc4)oc3nc2NCC(F)(F)F)cnc1OC)(c1ncon1)C([2H])([2H])[2H] [Example 26, 5-[2-(4-fluorophenyl)-3-(methylcarbamoyl)-6-[(2,2,2-trifluoroethyl)amino]furo[2,3-b]pyridin-5-yl]-2-methoxy-N-[2-(1,2,4-oxadiazol-3-yl)(^2H6)propan-2-yl]pyridine-3-carboxamide]",6.26
15,"[2H]C([2H])([2H])Oc1ncc(-c2cc3c(C(=O)NC)c(-c4ccc(F)cc4)oc3nc2NCC(F)(F)F)cc1C(=O)NC(C)(C)c1ncon1 [Example 27, 5-[2-(4-fluorophenyl)-3-(methylcarbamoyl)-6-[(2,2,2-trifluoroethyl)amino]furo[2,3-b]pyridin-5-yl]-2-(^2H3)methoxy-N-[2-(1,2,4-oxadiazol-3-yl)propan-2-yl]pyridine-3-carboxamide]",4.32
16,"CNC(=O)c1c(-c2ccc(F)cc2)oc2nc(NCC(F)(F)F)c(-c3cnc(OC)c(C(=O)NC(C)(C)c4ncon4)c3)cc12 [Example 29, 5-[2-(4-fluorophenyl)-3-(methylcarbamoyl)-6-[(2,2,2-trifluoroethyl)amino]furo[2,3-b]pyridin-5-yl]-2-methoxy-N-[2-(1,2,4-oxadiazol-3-yl)propan-2-yl]pyridine-3-carboxamide]",8.01
17,"[2H]C([2H])([2H])Oc1ncc(-c2cc3c(C(=O)NC)c(-c4ccc(F)cc4)oc3nc2CCC(F)(F)F)cc1C(=O)NC(C)(c1ncon1)C1CC1 (stereo not shown) [Example 30, N-[1-cyclopropyl-1-(1,2,4-oxadiazol-3-yl)ethyl]-5-[2-(4-fluorophenyl)-3-(methylcarbamoyl)-6-(3,3,3-trifluoropropyl)furo[2,3-b]pyridin-5-yl]-2-(^2H3)methoxypyridine-3-carboxamide]",4.35
